# Values quoted from earlier work in US5326898A, “Substituted phenylethenyl compounds having retinoid-like biological activity” (Allergan, Inc., priority 1992, dated 1994).
# Tested on: ornithine decarboxylase (ODC)
# Conditions: qualitative; background statement on retinoic acid
structure (smiles),measurement,value
CC1=C(/C=C/C(C)=C/C=C/C(C)=C/C(=O)O)C(C)(C)CCC1 [Retinoic acid],inhibition of induction of ODC activity by TPA,inhibits
